From patent US20240092758A1, “IMIDAZOLO INDAZOLE COMPOUNDS AS JAK INHIBITORS” (Theravance Biopharma R&D IP, LLC, priority 2021, published 2024)

Assays:
[1] = target: TYK2 (Homo sapiens (Human), UniProt P29597); assay: Biochemical JAK kinase assay (LanthaScreen), Tyk2; settings: read-out: Tyk2 pKi (converted)
Description: A panel of four LanthaScreen JAK biochemical assays (JAK1, 2, 3 and Tyk2) were carried in a common kinase reaction buffer (50 mM HEPES, pH 7.5, 0.01% Brij-35, 10 mM MgCl2, and 1 mM EGTA). Recombinant GST-tagged JAK enzymes and a GFP-tagged STAT1 peptide substrate were obtained from Life Technologies.
Serially diluted compounds were pre-incubated with each of the four JAK enzymes and the substrate in white 384-well microplates (Corning) at ambient temperature for 1 h. ATP was subsequently added to initiate the kinase reactions in 10 μL total volume, with 1% DMSO. The final enzyme concentrations for JAK1, 2, 3 and Tyk2 are 4.2 nM, 0.1 nM, 1 nM, and 0.25 nM respectively; the corresponding Km ATP concentrations used are 25 μM, 3 μM, 1.6 μM, and 10 μM; while the substrate concentration is 200 nM for all four assays. Kinase reactions were allowed to proceed for 1 hour at ambient temperature before a 10 μL preparation of EDTA (10 mM final concentration) and Tb-anti-pSTAT1 (pTyr701) antibody (Life Technologies, 2 nM final concentration) in TR-FRET dilution buffer (Life Technologies) was added. The plates were allowed to incubate at ambient temperature for 1 h before being read on the EnVision reader (Perkin Elmer). Emission ratio signals (520 nm/495 nm) were recorded and utilized to calculate the percent inhibition values based on DMSO and background controls.
For dose-response analysis, percent inhibition data were plotted vs. compound concentrations, and IC50 values were determined from a 4-parameter robust fit model with the Prism software (GraphPad Software). Results were expressed as pIC50 (negative logarithm of IC50) and subsequently converted to pKi (negative logarithm of dissociation constant, Ki) using the Cheng-Prusoff equation.
Test compounds having a lower Ki value or higher pKi value in the four JAK assays show greater inhibition of JAK activity.

[2] = tested on: IL-13 induced STAT6 phosphorylation in BEAS-2B human lung epithelial cells; assay: Cellular JAKI potency assay (BEAS-2B); format: cell-based; settings: Homo sapiens, BEAS-2B, BEAS-2B cells, read-out: BEAS2B pIC50 (converted)
How it was run: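 BEAS-2B cells were preincubated with compound (0.1% DMSO) in HBSS/HEPES/BSA for 1 h at 37 °C, then stimulated with IL-13 (80 ng/mL before addition) for 30 min. After lysis, pSTAT6 (Tyr641) was quantified by AlphaLISA SureFire; IC50 from a 4-parameter fit of percent inhibition, reported as pIC50.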

[3] = target: JAK1 (Homo sapiens (Human), UniProt P23458); assay: Biochemical JAK kinase assay (LanthaScreen), JAK1; settings: for Ki: read-out: JAK1 pKi (converted)
How it was run: (§1)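 LanthaScreen format: phospho-STAT1 (pTyr701) detected with 2 nM Tb antibody after 10 mM EDTA quench. Kinase step used Km-level ATP and 200 nM STAT1 peptide, 1 h at ambient after 1 h pre-incubation. Inhibition fitted to IC50, reported as pKi.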

[4] = target: JAK2 (Homo sapiens (Human), UniProt O60674); assay: Biochemical JAK kinase assay (LanthaScreen), JAK2; settings: for Ki: read-out: JAK2 pKi (converted)
How it was run: as §1

Sequence of JAK2 (O60674 whole entry): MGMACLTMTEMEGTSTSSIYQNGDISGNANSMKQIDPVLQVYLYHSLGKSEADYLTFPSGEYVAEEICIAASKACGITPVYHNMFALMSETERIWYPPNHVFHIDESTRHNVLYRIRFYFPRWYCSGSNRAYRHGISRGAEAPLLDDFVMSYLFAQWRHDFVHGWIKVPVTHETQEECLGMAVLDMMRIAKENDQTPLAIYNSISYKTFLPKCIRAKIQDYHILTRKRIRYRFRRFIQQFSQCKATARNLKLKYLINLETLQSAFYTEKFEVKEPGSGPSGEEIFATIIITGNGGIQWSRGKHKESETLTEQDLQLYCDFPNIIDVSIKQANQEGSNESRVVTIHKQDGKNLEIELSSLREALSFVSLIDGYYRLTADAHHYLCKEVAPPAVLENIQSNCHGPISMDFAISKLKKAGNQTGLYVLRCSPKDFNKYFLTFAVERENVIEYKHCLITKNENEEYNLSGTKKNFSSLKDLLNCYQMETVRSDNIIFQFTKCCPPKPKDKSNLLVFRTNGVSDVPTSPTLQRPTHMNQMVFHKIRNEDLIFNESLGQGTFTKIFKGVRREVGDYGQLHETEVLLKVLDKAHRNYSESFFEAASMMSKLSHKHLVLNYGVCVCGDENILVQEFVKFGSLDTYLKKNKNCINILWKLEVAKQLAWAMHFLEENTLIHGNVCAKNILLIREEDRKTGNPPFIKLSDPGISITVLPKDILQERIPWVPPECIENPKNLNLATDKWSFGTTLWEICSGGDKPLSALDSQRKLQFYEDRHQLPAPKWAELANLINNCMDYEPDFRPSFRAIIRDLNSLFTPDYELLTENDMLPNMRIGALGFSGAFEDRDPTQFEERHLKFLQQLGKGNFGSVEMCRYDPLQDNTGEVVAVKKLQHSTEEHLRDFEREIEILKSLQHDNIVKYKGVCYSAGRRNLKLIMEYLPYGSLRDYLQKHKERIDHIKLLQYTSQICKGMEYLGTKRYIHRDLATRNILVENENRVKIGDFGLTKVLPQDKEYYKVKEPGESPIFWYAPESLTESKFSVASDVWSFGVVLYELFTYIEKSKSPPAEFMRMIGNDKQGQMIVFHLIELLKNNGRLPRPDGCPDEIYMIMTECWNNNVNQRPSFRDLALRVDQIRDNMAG
Sequence of JAK1 (P23458 whole entry): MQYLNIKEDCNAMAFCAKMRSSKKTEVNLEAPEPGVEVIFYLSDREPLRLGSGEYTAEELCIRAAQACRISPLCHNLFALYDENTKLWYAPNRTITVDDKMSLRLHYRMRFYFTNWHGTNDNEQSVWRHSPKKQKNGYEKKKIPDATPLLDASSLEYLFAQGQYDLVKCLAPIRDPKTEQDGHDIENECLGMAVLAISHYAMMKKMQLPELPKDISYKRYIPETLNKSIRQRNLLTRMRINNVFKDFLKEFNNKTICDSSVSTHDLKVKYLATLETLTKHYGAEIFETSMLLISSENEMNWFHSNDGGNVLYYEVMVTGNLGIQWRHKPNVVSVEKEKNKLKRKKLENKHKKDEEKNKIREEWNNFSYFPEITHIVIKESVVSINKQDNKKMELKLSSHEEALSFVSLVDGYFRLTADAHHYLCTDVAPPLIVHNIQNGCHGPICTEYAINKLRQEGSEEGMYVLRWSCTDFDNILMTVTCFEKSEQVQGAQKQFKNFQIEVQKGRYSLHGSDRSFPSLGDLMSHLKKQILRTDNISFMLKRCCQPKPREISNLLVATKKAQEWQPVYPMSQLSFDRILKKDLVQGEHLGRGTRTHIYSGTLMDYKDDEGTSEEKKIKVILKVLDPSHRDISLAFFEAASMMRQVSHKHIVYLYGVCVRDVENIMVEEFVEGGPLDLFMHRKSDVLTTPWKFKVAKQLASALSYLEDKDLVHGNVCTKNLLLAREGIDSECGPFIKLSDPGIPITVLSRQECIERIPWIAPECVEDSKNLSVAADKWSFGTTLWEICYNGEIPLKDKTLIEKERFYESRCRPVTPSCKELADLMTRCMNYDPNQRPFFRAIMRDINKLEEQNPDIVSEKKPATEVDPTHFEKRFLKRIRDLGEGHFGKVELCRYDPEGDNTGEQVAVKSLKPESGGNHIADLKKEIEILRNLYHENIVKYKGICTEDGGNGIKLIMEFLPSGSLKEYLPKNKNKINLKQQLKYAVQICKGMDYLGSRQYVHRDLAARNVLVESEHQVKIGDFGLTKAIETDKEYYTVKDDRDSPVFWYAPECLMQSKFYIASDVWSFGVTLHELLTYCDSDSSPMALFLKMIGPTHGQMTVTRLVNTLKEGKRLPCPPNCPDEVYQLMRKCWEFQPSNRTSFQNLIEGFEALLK
Sequence of TYK2 (P29597 whole entry): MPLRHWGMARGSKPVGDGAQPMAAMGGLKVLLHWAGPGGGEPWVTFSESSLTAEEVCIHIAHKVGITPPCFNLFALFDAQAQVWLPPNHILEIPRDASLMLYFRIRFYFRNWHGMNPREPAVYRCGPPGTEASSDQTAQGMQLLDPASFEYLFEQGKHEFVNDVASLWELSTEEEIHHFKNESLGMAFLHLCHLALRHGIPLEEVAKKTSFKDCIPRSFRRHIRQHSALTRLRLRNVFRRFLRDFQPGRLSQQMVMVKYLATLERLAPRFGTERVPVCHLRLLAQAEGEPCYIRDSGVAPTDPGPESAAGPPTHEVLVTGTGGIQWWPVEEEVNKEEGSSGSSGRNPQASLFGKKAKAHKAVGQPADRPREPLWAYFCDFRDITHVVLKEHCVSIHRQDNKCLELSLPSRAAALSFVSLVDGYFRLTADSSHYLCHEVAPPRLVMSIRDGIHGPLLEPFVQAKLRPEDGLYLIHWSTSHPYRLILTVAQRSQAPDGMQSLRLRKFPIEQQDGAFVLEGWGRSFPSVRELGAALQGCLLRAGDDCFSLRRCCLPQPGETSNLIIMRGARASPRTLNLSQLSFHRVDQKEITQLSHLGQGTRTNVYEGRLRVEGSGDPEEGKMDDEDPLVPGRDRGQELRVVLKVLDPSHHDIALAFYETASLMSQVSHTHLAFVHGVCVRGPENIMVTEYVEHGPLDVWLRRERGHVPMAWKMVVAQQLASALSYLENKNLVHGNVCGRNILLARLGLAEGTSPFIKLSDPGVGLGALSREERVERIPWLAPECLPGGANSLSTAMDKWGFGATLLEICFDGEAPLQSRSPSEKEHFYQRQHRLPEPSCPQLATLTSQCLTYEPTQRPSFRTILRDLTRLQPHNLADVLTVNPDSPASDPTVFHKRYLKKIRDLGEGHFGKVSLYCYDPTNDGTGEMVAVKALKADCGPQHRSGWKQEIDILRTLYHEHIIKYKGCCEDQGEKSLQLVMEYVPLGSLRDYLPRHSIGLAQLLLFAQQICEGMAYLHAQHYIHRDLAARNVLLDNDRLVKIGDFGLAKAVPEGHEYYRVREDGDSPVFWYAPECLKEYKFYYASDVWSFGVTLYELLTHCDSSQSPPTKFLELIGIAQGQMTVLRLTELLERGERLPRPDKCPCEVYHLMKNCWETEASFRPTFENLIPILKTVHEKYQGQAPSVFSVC

| Structure (SMILES) | Ki [1] | IC50 [2] | Ki [3] | JAK1 pKi [3] | JAK2 pKi [4] | Ki [4] |
| --- | --- | --- | --- | --- | --- | --- |
| CCc1cc(O)ccc1-c1ccc2c(-c3nc(C4=CCN(C5CCCNC5)CC4)c[nH]3)n[nH]c2c1F (stereo not drawn) [Example 211] | 1 to 10 nM | 31.6 to 100 nM | 0.1 to 1 nM |  |  |  |
| CCc1cc(O)ccc1-c1ccc2c(-c3nc(C4=CCN(C(=O)[C@@H]5CCCN5)CC4)c[nH]3)n[nH]c2c1F [Compound 16, (S)-6-(2-ethyl-4-hydroxyphenyl)-7-fluoro-3-(4-(1-prolyl-1,2,3,6-tetrahydropyridin-4-yl)-1H-imidazol-2-yl)-1H-indazole] | 1 to 10 nM | 31.6 to 100 nM | 1 to 10 nM |  |  |  |
| CCc1cc(O)ccc1-c1ccc2c(-c3nc(C4=CCN(CCN)C4)c[nH]3)n[nH]c2c1F [Example 203] | 1 to 10 nM | 31.6 to 100 nM | 0.1 to 1 nM |  |  |  |
| CCc1cc(O)ccc1-c1ccc2c(-c3nc(C4=CCN(C(=O)[C@@H]5CCCN5)CC4)c[nH]3)n[nH]c2c1 [Example 177] | 1 to 10 nM | 31.6 to 100 nM | 0.1 to 1 nM |  |  |  |
| CCc1cc(O)ccc1-c1ccc2c(-c3nc(C4=CCN(CCNC)CC4)c[nH]3)n[nH]c2c1F [Example 188] | 1 to 10 nM | 31.6 to 100 nM | 0.1 to 1 nM |  |  |  |
| CCc1cc(O)ccc1-c1ccc2c(-c3nc(C4=CCN(C5CCCNC5)C4)c[nH]3)n[nH]c2c1F (stereo not drawn) [Example 222] | 1 to 10 nM | 10 to 31.6 nM | 0.1 to 1 nM |  |  |  |
| CCc1cc(O)ccc1-c1ccc2c(-c3nc(C4=CCCN(C[C@H]5COCCN5)C4)c[nH]3)n[nH]c2c1F [Example 197] | 1 to 10 nM | 31.6 to 100 nM | 0.1 to 1 nM |  |  |  |
| CCc1cc(O)ccc1-c1ccc2c(-c3nc(C4=CCNCC4)c(C)[nH]3)n[nH]c2c1 [Example 291] | 0.1 to 1 nM | 3.16 to 10 nM |  | A (A represents a pKi value ≥10 (Ki≤0.1 nM)) |  |  |
| CCc1cc(O)ccc1-c1ccc2c(-c3nc(C4=CCN(C(=O)[C@@H](N)Cc5ccccc5)CC4)c[nH]3)n[nH]c2c1F [Example 179] | 10 to 100 nM | 100 to 316 nM | 1 to 10 nM |  |  |  |
| CCc1cc(O)ccc1-c1ccc2c(-c3nc(C4=CCN(C[C@@H]5COCCN5C(=O)OC(C)(C)C)CC4)c[nH]3)n[nH]c2c1 [Example 383] | 10 to 100 nM | 31.6 to 100 nM | 0.1 to 1 nM |  |  |  |
| CCc1cc(O)ccc1-c1ccc2c(-c3nc(C4=CCN(C(=O)[C@@H](N)Cc5ccccc5)CC4)c[nH]3)n[nH]c2c1 [Example 176] | 1 to 10 nM | 31.6 to 100 nM | 0.1 to 1 nM |  |  |  |
| CCc1cc(O)ccc1-c1ccc2c(-c3nc(C4=CCN(S(=O)(=O)C5CNC5)C4)c[nH]3)n[nH]c2c1F [Example 180] | 10 to 100 nM | 31.6 to 100 nM | 1 to 10 nM |  |  |  |
| CCc1cc(O)ccc1-c1ccc2c(-c3nc(C4=CC(C)(C)NC(C)(C)C4)c[nH]3)n[nH]c2c1 [Example 226] | 1 to 10 nM | 10 to 31.6 nM | 0.1 to 1 nM |  |  |  |
| CCc1cc(O)c(F)cc1-c1ccc2c(-c3nc(C4=CCNC4)c[nH]3)n[nH]c2c1F [Example 18, 4-(3-(4-(2,5-dihydro-1H-pyrrol-3-yl)-1H-imidazol-2-yl)-7-fluoro-1H-indazol-6-yl)-5-ethyl-2-fluorophenol] | 1 to 10 nM | 3.16 to 10 nM |  | A (A represents a pKi value ≥10 (Ki≤0.1 nM)) |  |  |
| CCc1cc(O)ccc1-c1ccc2c(-c3nc(C4=CCN(CCNC)C4)c[nH]3)n[nH]c2c1F [Example 204] | 1 to 10 nM | 31.6 to 100 nM | 0.1 to 1 nM |  |  |  |
| CCc1cc(O)ccc1-c1ccc2c(-c3nc(C4=CCN(CCNC)CC4)c[nH]3)n[nH]c2c1 [Example 183] | 1 to 10 nM | 31.6 to 100 nM | 0.1 to 1 nM |  |  |  |
| CCc1cc(O)ccc1-c1ccc2c(-c3nc(C4=CCN(C[C@@H]5COCCN5C)C4)c[nH]3)n[nH]c2c1F [Example 221] | 0.1 to 1 nM | 10 to 31.6 nM | 0.1 to 1 nM |  |  |  |
| CCc1cc(O)ccc1-c1ccc2c(-c3nc(C4=CCCN(CCNS(C)(=O)=O)C4)c[nH]3)n[nH]c2c1 [Example 108] |  | 10 to 31.6 nM | 0.1 to 1 nM |  | A (A represents a pKi value ≥10 (Ki≤0.1 nM)) |  |
| CCOC(=O)C[C@H]1C=C(c2c[nH]c(-c3n[nH]c4c(F)c(-c5ccc(O)cc5CC)ccc34)n2)CN1 [Example 286] |  | 3.16 to 10 nM | 0.1 to 1 nM |  |  | 0.1 to 1 nM |

| Structure (SMILES) | Ki [1] | IC50 [2] | Ki [3] | JAK1 pKi [3] | JAK2 pKi [4] | Ki [4] |
| --- | --- | --- | --- | --- | --- | --- |
| CCc1cc(O)ccc1-c1ccc2c(-c3nc(C4=C[C@H](CC(=O)OC(C)C)NC4)c[nH]3)n[nH]c2c1F [Example 309] |  | 10 to 31.6 nM | 0.1 to 1 nM |  |  | 0.1 to 1 nM |
| CCc1cc(O)ccc1-c1ccc2c(-c3nc(C4=C(C(=O)OC(C)C)CNCC4)c[nH]3)n[nH]c2c1F [Example 325] |  | 10 to 31.6 nM | 0.1 to 1 nM |  |  | 0.1 to 1 nM |
| CCc1cc(O)ccc1-c1ccc2c(-c3nc(C4=CCCN(C(=O)NC)C4)c[nH]3)n[nH]c2c1 [Example 162] |  | 31.6 to 100 nM | 0.1 to 1 nM |  |  | 0.1 to 1 nM |
| CCc1cc(O)ccc1-c1ccc2c(-c3nc(C4=CCCN(C(C)CO)C4)c[nH]3)n[nH]c2c1F (stereo not drawn) [Example 46] |  | 10 to 31.6 nM | 0.1 to 1 nM |  |  | 0.1 to 1 nM |
| CCc1cc(O)ccc1-c1ccc2c(-c3nc(C4=C[C@@H](C(=O)N5CC(N(C)C)C5)NC4)c[nH]3)n[nH]c2c1F [Example 252] |  | 100 to 316 nM | 0.1 to 1 nM |  |  | 0.1 to 1 nM |
| CCc1cc(O)ccc1-c1ccc2c(-c3nc(C4=CCN(CCN5CCNC5=O)CC4)c[nH]3)n[nH]c2c1F [Example 120] |  | 10 to 31.6 nM | 0.1 to 1 nM |  |  | 0.1 to 1 nM |
| CCc1cc(O)ccc1-c1ccc2c(-c3nc(C4=C[C@@H](COC)NC4)c[nH]3)n[nH]c2c1 [Example 242] |  | 3.16 to 10 nM |  | A (A represents a pKi value ≥10 (Ki≤0.1 nM)) |  | 0.1 to 1 nM |
| CCc1cc(O)ccc1-c1ccc2c(-c3nc(C4=CC[C@H](C)N(CC5COC5)C4)c[nH]3)n[nH]c2c1F [Example 267] |  | 10 to 31.6 nM | 0.1 to 1 nM |  |  | 0.1 to 1 nM |
| CCc1cc(O)ccc1-c1ccc2c(-c3nc(C4=C[C@H](CC(=O)OC)NC4)c[nH]3)n[nH]c2c1F [Example 253] |  | 3.16 to 10 nM |  | A (A represents a pKi value ≥10 (Ki≤0.1 nM)) | A (A represents a pKi value ≥10 (Ki≤0.1 nM)) |  |
| CCc1cc(O)ccc1-c1ccc2c(-c3nc(C4=CCN(Cc5ccn[nH]5)CC4)c[nH]3)n[nH]c2c1F [Example 137] |  | 10 to 31.6 nM | 0.1 to 1 nM |  |  | 0.1 to 1 nM |
| CCc1cc(O)c(F)cc1-c1ccc2c(-c3nc(C4=CCNCC4)c[nH]3)n[nH]c2c1 [Example 284] |  | 3.16 to 10 nM |  | A (A represents a pKi value ≥10 (Ki≤0.1 nM)) | A (A represents a pKi value ≥10 (Ki≤0.1 nM)) |  |
| CCc1cc(O)ccc1-c1ccc2c(-c3nc(C4=C(C(=O)OC)CNCC4)c[nH]3)n[nH]c2c1F [Example 294] |  | 3.16 to 10 nM | 0.1 to 1 nM |  | A (A represents a pKi value ≥10 (Ki≤0.1 nM)) |  |
| CCc1cc(O)ccc1-c1ccc2c(-c3nc(C4=CCN(CCS(=O)(=O)NC)CC4)c[nH]3)n[nH]c2c1 [Example 80] |  | 10 to 31.6 nM | 0.1 to 1 nM |  | A (A represents a pKi value ≥10 (Ki≤0.1 nM)) |  |
| CCc1cc(O)ccc1-c1ccc2c(-c3nc(C4=CC5CNCCN5CC4)c[nH]3)n[nH]c2c1F (stereo not drawn) [Example 358] |  | 31.6 to 100 nM | 0.1 to 1 nM |  |  | 0.1 to 1 nM |
| CCc1cc(O)ccc1-c1ccc2c(-c3nc(C4=CCN(CCc5ccccc5)C4)c[nH]3)n[nH]c2c1 [Example 141] |  | 100 to 316 nM | 0.1 to 1 nM |  |  | 0.1 to 1 nM |
| CCc1cc(O)ccc1-c1ccc2c(-c3nc(C4=C[C@H](CO)N(CCCO)C4)c[nH]3)n[nH]c2c1F [Example 264] |  | 10 to 31.6 nM | 0.1 to 1 nM |  | A (A represents a pKi value ≥10 (Ki≤0.1 nM)) |  |
| CCc1cc(O)ccc1-c1ccc2c(-c3nc(C4=CCCNC4C)c[nH]3)n[nH]c2c1F (stereo not drawn) [Example 237] |  | 10 to 31.6 nM | 0.1 to 1 nM |  | A (A represents a pKi value ≥10 (Ki≤0.1 nM)) |  |
| CCc1cc(O)ccc1-c1ccc2c(-c3nc(C4=CCN(Cc5cnc[nH]5)C4)c[nH]3)n[nH]c2c1 [Example 142] |  | 10 to 31.6 nM |  | A (A represents a pKi value ≥10 (Ki≤0.1 nM)) | A (A represents a pKi value ≥10 (Ki≤0.1 nM)) |  |
